{
  "source": "patent US8299048B2",
  "about": "“Hexahydrocyclopentyl[f]indazole sulfonamides and derivatives thereof as selective glucocorticoid receptor modulators” (Merck Sharp & Dohme Corp., priority 2008, dated 2012)",
  "biological_target": "T1, glucocorticoid receptor (Homo sapiens, UniProt P04150)",
  "T1 construct": "endogenous in cells",
  "T1 sequence (P04150 1-777)": "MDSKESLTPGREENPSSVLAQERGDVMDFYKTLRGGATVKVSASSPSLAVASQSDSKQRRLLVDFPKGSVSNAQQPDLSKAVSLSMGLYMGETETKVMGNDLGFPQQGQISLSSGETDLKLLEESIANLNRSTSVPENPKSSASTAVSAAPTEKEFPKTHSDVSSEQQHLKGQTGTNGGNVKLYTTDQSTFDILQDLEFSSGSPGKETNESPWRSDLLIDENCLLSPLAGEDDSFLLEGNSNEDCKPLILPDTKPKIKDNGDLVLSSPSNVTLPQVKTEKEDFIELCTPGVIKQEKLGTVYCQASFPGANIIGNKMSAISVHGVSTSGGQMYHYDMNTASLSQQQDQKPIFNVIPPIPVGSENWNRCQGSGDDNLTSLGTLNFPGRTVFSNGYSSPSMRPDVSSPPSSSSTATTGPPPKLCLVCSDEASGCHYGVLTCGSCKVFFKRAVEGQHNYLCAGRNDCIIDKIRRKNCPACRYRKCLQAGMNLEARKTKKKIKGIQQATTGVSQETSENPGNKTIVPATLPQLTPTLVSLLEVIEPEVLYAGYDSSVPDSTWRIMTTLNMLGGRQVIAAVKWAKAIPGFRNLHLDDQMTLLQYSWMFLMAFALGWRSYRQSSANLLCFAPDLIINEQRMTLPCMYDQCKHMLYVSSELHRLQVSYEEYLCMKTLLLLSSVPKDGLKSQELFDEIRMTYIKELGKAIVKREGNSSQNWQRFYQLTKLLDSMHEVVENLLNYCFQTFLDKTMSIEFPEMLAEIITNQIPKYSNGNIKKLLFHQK",
  "experiment": "Ligand binding assay (GR BIND)",
  "how_it_was_run": "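Displacement of tritiated dexamethasone (6 nM trace solution) from receptor in cell supernatant was measured after overnight incubation at 4 °C in molybdate-containing TEGM, pH 7.2, 2% ethanol. Hydroxylapatite pulled down the receptor–ligand complex for filter washing and scintillation counting, with dexamethasone as reference.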",
  "data": [
    {"smiles": "Cc1nn(C)c(Cl)c1S(=O)(=O)N(CC#N)C[C@H]1CCC2=Cc3c(cnn3-c3ccc(F)cc3)C[C@@]21C", "note": "[Example 52, 5-chloro-N-(cyanomethyl)-N-{[(4αR,5S)-1-(4-fluorophenyl)-4α-methyl-1,4,4α,5,6,7-hexahydrocyclopenta[f]indazol-5-yl]methyl}-1,3-dimethyl-1H-pyrazole-4-sulfonamide]", "values": [
      {"measurement": "Ki", "result": 1.9, "unit": "nM"}
    ]},
    {"smiles": "C[C@]12Cc3cnn(-c4ccc(F)cc4)c3C=C1CC[C@@H]2CN(CCc1ccccc1F)S(=O)(=O)Cc1ccccc1C(N)=O", "note": "[Example 190, 2-{[([2-(2-fluorophenyl)ethyl]{[(4αR,5S)-1-(4-fluorophenyl)-4α-methyl-1,4,4α,5,6,7-hexahydrocyclopenta[f]indazol-5-yl]methyl}amino)sulfonyl]methyl}benzamide]", "values": [
      {"measurement": "Ki", "result": 1.5, "unit": "nM"}
    ]},
    {"smiles": "C[C@H](O)CN(C[C@H]1CCC2=Cc3c(cnn3-c3ccc(F)cc3)C[C@@]21C)S(=O)(=O)Cc1ccccc1C(=O)O", "note": "[Example 183, 2-[({{[(4αR,5S)-1-(4-fluorophenyl)-4α-methyl-1,4,4α,5,6,7-hexahydrocyclopenta[f]indazol-5-yl]methyl}[(2S)-2-hydroxypropyl]amino}sulfonyl)methyl]benzoic acid]", "values": [
      {"measurement": "Ki", "result": 64, "unit": "nM"}
    ]},
    {"smiles": "C[C@]12Cc3cnn(-c4ccc(F)cc4)c3C=C1CC[C@@H]2CN(CC#N)S(=O)(=O)c1cc(F)cc(F)c1", "note": "[Example 44, N-(cyanomethyl)-3,5-difluoro-N-{[(4αR,5S)-1-(4-fluorophenyl)-4α-methyl-1,4,4α,5,6,7-hexahydrocyclopenta[f]indazol-5-yl]methyl}benzenesulfonamide]", "values": [
      {"measurement": "Ki", "result": 1.6, "unit": "nM"}
    ]},
    {"smiles": "C[C@]12Cc3cnn(-c4ccc(F)cc4)c3C=C1CC[C@@H]2CN(CC1CC1)S(=O)(=O)Cc1ccccc1", "note": "[Example 21, N-(cyclopropylmethyl)-N-{[(4αR,5S)-1-(4-fluorophenyl)-4α-methyl-1,4,4α,5,6,7-hexahydrocyclopenta[f]indazol-5-yl]methyl}-1-phenylmethanesulfonamide]", "values": [
      {"measurement": "Ki", "result": 3, "unit": "nM"}
    ]},
    {"smiles": "Cc1ccccc1S(=O)(=O)N(CC#N)C[C@H]1CCC2=Cc3c(cnn3-c3ccc(F)cc3)C[C@@]21C", "note": "[Example 49, N-(cyanomethyl)-N-{[(4αR,5S)-1-(4-fluorophenyl)-4α-methyl-1,4,4α,5,6,7-hexahydrocyclopenta[f]indazol-5-yl]methyl}-2-methylbenzenesulfonamide]", "values": [
      {"measurement": "Ki", "result": 1.8, "unit": "nM"}
    ]},
    {"smiles": "Cn1cc(S(=O)(=O)N(CC#N)C[C@H]2CCC3=Cc4c(cnn4-c4ccc(F)cc4)C[C@@]32C)c(C(F)(F)F)n1", "note": "[Example 32, N-(cyanomethyl)-N-{[(4αR,5S)-1-(4-fluorophenyl}-4α-methyl-1,4,4α,5,6,7-hexahydrocyclopenta[f]indazol-5-yl]methyl}-1-methyl-3-(trifluoromethyl)-1H-pyrazole-4-sulfonamide]", "values": [
      {"measurement": "Ki", "result": 3.9, "unit": "nM"}
    ]},
    {"smiles": "CCS(=O)(=O)N(CC1CCCO1)C[C@H]1CCC2=Cc3c(cnn3-c3ccc(F)cc3)C[C@@]21C", "note": "(stereo partly drawn) [Example 174, N-{[(4αR,5S)-1-(4-fluorophenyl)-4α-methyl-1,4,4α,5,6,7-hexahydrocyclopenta[f]indazol-5-yl]methyl}-N-(tetrahydrofuran-2-ylmethyl)ethanesulfonamide]", "values": [
      {"measurement": "Ki", "result": 3.4, "unit": "nM"}
    ]},
    {"smiles": "C[C@@H](O)CN(C[C@H]1CCC2=Cc3c(cnn3-c3ccc(F)cc3)C[C@@]21C)S(=O)(=O)Cc1ccccc1C(N)=O", "note": "[Example 184, 2-[({{[(4αR,5S)-1-(4-fluorophenyl)-4α-methyl-1,4,4α,5,6,7-hexahydrocyclopenta[f]indazol-5-yl]methyl}[(2R)-2-hydroxypropyl]amino}sulfonyl)methyl]benzamide]", "values": [
      {"measurement": "Ki", "result": 9.6, "unit": "nM"}
    ]},
    {"smiles": "C[C@]12Cc3cnn(-c4ccc(F)cc4)c3C=C1CC[C@@H]2CN(CC#N)S(=O)(=O)c1ccc(C#N)cc1", "note": "[Example 28, 4-cyano-N-(cyanomethyl)-N-{[(4αR,5S)-1-(4-fluorophenyl)-4α-methyl-1,4,4α,5,6,7-hexahydrocyclopenta[f]indazol-5-yl]methyl}benzenesulfonamide]", "values": [
      {"measurement": "Ki", "result": 2.3, "unit": "nM"}
    ]},
    {"smiles": "Cc1cc(S(=O)(=O)N(CC#N)C[C@H]2CCC3=Cc4c(cnn4-c4ccc(F)cc4)C[C@@]32C)c(C)cc1Cl", "note": "[Example 29, 4-chloro-N-(cyanomethyl)-N-{[(4αR,5S)-1-(4-fluorophenyl)-4α-methyl-1,4,4α,5,6,7-hexahydrocyclopenta[f]indazol-5-yl]methyl}-2,5-dimethylbenzenesulfonamide]", "values": [
      {"measurement": "Ki", "result": 8.4, "unit": "nM"}
    ]},
    {"smiles": "C[C@]12Cc3cnn(-c4ccc(F)cc4)c3C=C1CC[C@@H]2CN(CC#N)S(=O)(=O)c1ccc(Oc2ccccn2)cc1", "note": "[Example 45, N-(cyanomethyl)-N-{[(4αR,5S)-1-(4-fluorophenyl)-4α-methyl-1,4,4α,5,6,7-hexahydrocyclopenta[f]indazol-5-yl]methyl}-4-(pyridin-2-yloxy)benzenesulfonamide]", "values": [
      {"measurement": "Ki", "result": 2.4, "unit": "nM"}
    ]},
    {"smiles": "Cc1oncc1S(=O)(=O)N(CCO)C[C@H]1CCC2=Cc3c(cnn3-c3ccc(F)cc3)C[C@@]21C", "note": "[Example 56, N-{[(4αR,5S)-1-(4-fluorophenyl)-4α-methyl-1,4,4α,5,6,7-hexahydrocyclopenta[f]indazol-5-yl]methyl}-N-(2-hydroxyethyl)-5-methylisoxazole-4-sulfonamide]", "values": [
      {"measurement": "Ki", "result": 4.6, "unit": "nM"}
    ]},
    {"smiles": "CC(C)(O)CN(C[C@H]1CCC2=Cc3c(cnn3-c3ccc(F)cc3)C[C@@]21C)S(=O)(=O)c1ccccc1F", "note": "[Example 199, 2-fluoro-N-{[(4αR,5S)-1-(4-fluorophenyl)-4α-methyl-1,4,4α,5,6,7-hexahydrocyclopenta[f]indazol-5-yl]methyl}-N-(2-hydroxy-2-methylpropyl)benzenesulfonamide]", "values": [
      {"measurement": "Ki", "result": 2.4, "unit": "nM"}
    ]},
    {"smiles": "C[C@]12Cc3cnn(-c4ccc(F)cc4)c3C=C1CC[C@@H]2CN(CCO)S(=O)(=O)c1ccc(C#N)cc1Cl", "note": "[Example 60, 2-chloro-4-cyano-N-{[(4αR,5S)-1-(4-fluorophenyl)-4α-methyl-1,4,4α,5,6,7-hexahydrocyclopenta[f]indazol-5-yl]methyl}-N-(2-hydroxyethyl)benezenesulfonamide]", "values": [
      {"measurement": "Ki", "result": 4.4, "unit": "nM"}
    ]},
    {"smiles": "C[C@]12Cc3cnn(-c4ccc(F)cc4)c3C=C1CC[C@@H]2CN(CC#N)S(=O)(=O)c1ccc(Oc2cccc(Cl)c2C#N)cc1", "note": "[Example 38, 4-(3-chloro-2-cyanophenoxy)-N-(cyanomethyl)-N-{[(4αR,5S)-1-(4-fluorophenyl)-4α-methyl-1,4,4α,5,6,7-hexahydrocyclopenta[f]indazol-5-yl]methyl}benzenesulfonamide]", "values": [
      {"measurement": "Ki", "result": 6.4, "unit": "nM"}
    ]},
    {"smiles": "C[C@]12Cc3cnn(-c4ccc(F)cc4)c3C=C1CC[C@@H]2CN(CC#N)S(=O)(=O)c1cc(F)c(F)cc1F", "note": "[Example 47, N-(cyanomethyl)-2,4,5-trifluoro-N-{[(4αR,5S)-1-(4-fluorophenyl)-4α-methyl-1,4,4α,5,6,7-hexahydrocyclopenta[f]indazol-5-yl]methyl}benzenesulfonamide]", "values": [
      {"measurement": "Ki", "result": 0.7, "unit": "nM"}
    ]},
    {"smiles": "C[C@]12Cc3cnn(-c4ccc(F)cc4)c3C=C1CC[C@@H]2CN(CC1CC1)S(=O)(=O)c1ccc(F)c(Cl)c1", "note": "[Example 15, 3-chloro-N-(cyclopropylmethyl)-4-fluoro-N-{[(4αR,5S)-1-(4-fluorophenyl)-4α-methyl-1,4,4α,5,6,7-hexahydrocyclopenta[f]indazol-5-yl]methyl}benzenesulfonamide]", "values": [
      {"measurement": "Ki", "result": 1.8, "unit": "nM"}
    ]},
    {"smiles": "COC(=O)c1ccccc1S(=O)(=O)N(CC1CC1)C[C@H]1CCC2=Cc3c(cnn3-c3ccc(F)cc3)C[C@@]21C", "note": "[Example 18, methyl 2-[((cyclopropylmethyl){[(4αR,5S)-1-(4-fluorophenyl)-4α-methyl-1,4,4α,5,6,7-hexahydrocyclopenta[f]indazol-5 yl]methyl}amino)sulfonyl]benzoate]", "values": [
      {"measurement": "Ki", "result": 0.8, "unit": "nM"}
    ]},
    {"smiles": "C[C@]12Cc3cnn(-c4ccc(F)cc4)c3C=C1CC[C@@H]2CN(CCO)S(=O)(=O)c1ccc(F)c(F)c1", "note": "[Example 59]", "values": [
      {"measurement": "Ki", "result": 2.6, "unit": "nM"}
    ]},
    {"smiles": "COC(=O)c1ccccc1S(=O)(=O)N(C[C@H]1CCC2=Cc3c(cnn3-c3ccc(F)cc3)C[C@@]21C)C[C@@H](C)O", "note": "[Example 186, methyl 2-({{[(4αR,5S)-1-(4-fluorophenyl)-4α-methyl-1,4,4α,5,6,7-hexahydrocyclopenta[f]indazol-5-yl]methyl}[(2R)-2-hydroxypropyl]amino}sulfonyl)benzoate]", "values": [
      {"measurement": "Ki", "result": 1.9, "unit": "nM"}
    ]},
    {"smiles": "C[C@]12Cc3cnn(-c4ccc(F)cc4)c3C=C1CC[C@@H]2CN(CC#N)S(=O)(=O)c1cc(OCC(F)(F)F)ccc1OCC(F)(F)F", "note": "[Example 41, N-(cyanomethyl)-N-{[(4αR,5S)-1-(4-fluorophenyl)-4α-methyl-1,4,4α,5,6,7-hexahydrocyclopenta[f]indazol-5-yl]methyl}-2,5-bis(2,2,2-trifluoroethoxy)benzenesulfonamide]", "values": [
      {"measurement": "Ki", "result": 5.9, "unit": "nM"}
    ]},
    {"smiles": "C[C@]12Cc3cnn(-c4ccc(F)cc4)c3C=C1CC[C@@H]2CN(CCCc1ccccc1)S(=O)(=O)c1ccccc1F", "note": "[Example 195, 2-fluoro-N-{[(4αR,5S)-1-(4-fluorophenyl)-4α-methyl-1,4,4α,5,6,7-hexahydrocyclopenta[f]indazol-5-yl]methyl}-N-(3-phenylpropyl)benzenesulfonamide]", "values": [
      {"measurement": "Ki", "result": 0.6, "unit": "nM"}
    ]}
  ]
}
